From ChEMBL document CHEMBL1201862, “PubChem BioAssay data set” (2004)
Calls of active or inactive are those of the source.

Legend:
[1] = cells; format: functional
[2] = THP-1 cell cytotoxicity, dose response, cytotoxicity control for non-replicating M. tuberculosis project (AID 489025); format: functional
[3] = target: T1, Hexokinase HKDC1 (Homo sapiens, UniProt Q2TB90); experiment: HKDC1 hexokinase inhibitors, dose response, biochemical, W721R variant (AID 504729); format: functional
T1 sequence (Q2TB90 whole entry): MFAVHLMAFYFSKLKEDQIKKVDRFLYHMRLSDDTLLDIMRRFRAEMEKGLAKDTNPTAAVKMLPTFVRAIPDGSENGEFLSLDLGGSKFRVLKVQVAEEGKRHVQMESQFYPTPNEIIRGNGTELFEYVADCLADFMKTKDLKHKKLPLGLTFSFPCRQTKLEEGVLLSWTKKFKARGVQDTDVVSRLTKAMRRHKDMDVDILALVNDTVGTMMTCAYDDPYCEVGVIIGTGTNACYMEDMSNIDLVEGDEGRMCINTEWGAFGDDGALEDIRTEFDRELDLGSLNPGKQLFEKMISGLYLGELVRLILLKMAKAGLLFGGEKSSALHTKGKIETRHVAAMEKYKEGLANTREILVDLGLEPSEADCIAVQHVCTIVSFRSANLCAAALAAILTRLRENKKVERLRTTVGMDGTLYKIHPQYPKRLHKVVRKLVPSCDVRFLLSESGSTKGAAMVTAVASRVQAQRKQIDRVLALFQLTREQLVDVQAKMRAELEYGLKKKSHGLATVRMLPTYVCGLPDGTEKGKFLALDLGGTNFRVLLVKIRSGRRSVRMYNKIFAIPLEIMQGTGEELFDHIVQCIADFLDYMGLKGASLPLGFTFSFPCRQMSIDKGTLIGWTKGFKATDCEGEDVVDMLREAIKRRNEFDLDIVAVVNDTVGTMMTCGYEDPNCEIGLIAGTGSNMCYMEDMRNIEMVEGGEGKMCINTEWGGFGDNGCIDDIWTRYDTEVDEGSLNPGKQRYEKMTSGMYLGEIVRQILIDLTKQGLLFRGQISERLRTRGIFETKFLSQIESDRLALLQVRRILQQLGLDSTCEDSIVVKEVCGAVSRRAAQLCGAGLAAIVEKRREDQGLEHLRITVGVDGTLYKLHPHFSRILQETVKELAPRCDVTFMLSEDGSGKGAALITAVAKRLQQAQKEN

[4] = target: DNA dC->dU-editing enzyme APOBEC-3G (Homo sapiens, UniProt Q9HC16); experiment: Dose Response confirmation of small molecule APOBEC3G DNA Deaminase Inhibitors via a fluorescence-based single-stranded DNA deaminase assay. [Related pubchem assays (depositor defined):AID493012, AID493028]; format: functional
Chain of DNA dC->dU-editing enzyme APOBEC-3G (Q9HC16 whole entry): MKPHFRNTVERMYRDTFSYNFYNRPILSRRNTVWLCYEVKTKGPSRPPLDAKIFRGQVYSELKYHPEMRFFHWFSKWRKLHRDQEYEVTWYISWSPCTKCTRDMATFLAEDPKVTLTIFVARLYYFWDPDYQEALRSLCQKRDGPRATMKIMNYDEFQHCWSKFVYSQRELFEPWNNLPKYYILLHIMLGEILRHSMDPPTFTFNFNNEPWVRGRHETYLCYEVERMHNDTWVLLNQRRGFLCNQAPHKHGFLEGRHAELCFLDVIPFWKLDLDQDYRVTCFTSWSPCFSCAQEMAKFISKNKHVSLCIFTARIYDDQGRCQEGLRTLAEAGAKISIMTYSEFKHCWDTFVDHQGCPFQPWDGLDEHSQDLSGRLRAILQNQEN

[5] = target: DNA dC->dU-editing enzyme APOBEC-3A (Homo sapiens, UniProt P31941); experiment: APOBEC3A DNA deaminase inhibitors, dose response, biochemical (AID 504722); format: functional
Chain of DNA dC->dU-editing enzyme APOBEC-3A (P31941 whole entry): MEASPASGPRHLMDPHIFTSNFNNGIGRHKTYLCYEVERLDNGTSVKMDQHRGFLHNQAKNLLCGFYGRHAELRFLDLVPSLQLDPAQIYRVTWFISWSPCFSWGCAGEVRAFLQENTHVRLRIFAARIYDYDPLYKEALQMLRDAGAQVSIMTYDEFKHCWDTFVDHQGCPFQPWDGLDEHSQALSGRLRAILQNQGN

[6] = target: T2, Bcl-2-like protein 10 (Homo sapiens, UniProt Q9HD36); experiment: displacers of TR3 peptide from Bcl-B, primary screen, selectivity assay for Bfl-1 inhibitor project, biochemical, fluorescence polarization, FITC-TR3 peptide (AID 748);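 also: fluorescence polarization from a fluorescein-labelled TR3 peptide binding purified Bcl-B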
T2 sequence (Q9HD36 whole entry): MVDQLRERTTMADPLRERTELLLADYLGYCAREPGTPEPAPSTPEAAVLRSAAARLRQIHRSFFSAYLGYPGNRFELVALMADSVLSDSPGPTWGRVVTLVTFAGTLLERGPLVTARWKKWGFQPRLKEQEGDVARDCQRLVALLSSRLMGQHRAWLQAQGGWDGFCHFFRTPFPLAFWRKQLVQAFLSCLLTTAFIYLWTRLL

With CCOC(=O)c1ccc(-c2ccc(C(=O)Nc3cccnc3)o2)cc1 the IC50 [1] was 7.87 µM (active) and the CC50 [2] was 29.7 µM (active).

In the case of Cc1ccc2cc(CCNC(=O)c3ccc(S(=O)(=O)N4CCCCC4)cc3)c(O)nc2c1, the IC50 [3] is reported as 8.17 µM (active).

With Cc1nc2c(O)c3c(c(O)c2nc1C)C1C=CC3CC1 the IC50 [3] was 2.23 µM (active).

In the case of COC(=O)c1ccc(NCc2cc(O)ccc2O)cc1, the IC50 [3] is reported as 12.2 µM (active).

With O=[N+]([O-])c1cccc(/C=N/n2c(S)nnc2COc2ccccc2)c1 the IC50 [4] was 5.51 µM (active) and the IC50 [5] was > 100 µM (inactive).

With COc1ccc(N2C(=O)C[S+]([O-])C(c3ccccc3)C2=O)cc1 (configuration not stated) the IC50 [4] was 7.26 µM (active) and the IC50 [5] was > 100 µM (inactive).

In the case of CC(=O)C1=C(C)OC(N)=C(C#N)C1c1ccco1 (configuration not stated), the IC50 [6] is reported as > 6.25 µM (inactive).

For CCCCCCn1c(=O)c(C(=O)Nc2nnc(C)s2)c(O)c2ccccc21, the IC50 [1] was 22.6 µM (active) and the CC50 [2] was > 40 µM (active).
